# Source: patent US10300155B2, “Alpha-synuclein ligands” (Washington University, priority 2015, dated 2019)
# Where “and” joins values, the source holds several entries; their conditions need not be identical. Identical values can stand only once. Like-named read-outs stand apart in the source and are kept apart here.
# What was measured:
# α-synuclein fibrils = molecular target: T1, α-synuclein fibrils (Homo sapiens, UniProt P37840); test: ThT competitive assay for α-synuclein fibrils (Table 1); format: binding; details: for EC50: α-synuclein fibrils
# T1 construct: made in house; host or cells: E. coli BL21(DE3)RIL
# Procedure: Upon binding to amyloid fibrils, a peak at approximately 440 nm becomes dominant with the fluorescent emission maximum shifted to 480 nm. This is accompanied by a strong enhancement of the fluorescence.
# α-Synuclein recombinant protein was produced in E. coli. […] Freshly transformed BL21 colonies were inoculated into 2 L baffled flasks containing 250 mL sterilized TB (1.2% bactotryptone, 2.4% yeast extract, 0.4% glycerol, 0.17 M KH2PO4, 0.72 M K2HPO4) with 50 μg/ml ampicillin, and incubated overnight at 37° C. with shaking.
# To determine the concentration of fibrils, the reaction mixture (100 μL) was centrifuged at 18,000×g for 10 minutes to separate fibrils from monomer. The α-synuclein monomer and other soluble proteins in the supernatant were removed, and the fibril pellet was resuspended in 100 μL solution of Tris-HCl (20 mM) and NaCl (100 mM). This fibril suspension was used in a bicinchoninic acid (BCA) protein assay along with a bovine serum albumin (BSA) standard curve to determine the concentration of fibrils in the 72 hour fibril reaction mixture.
# To prepare the fibrils for performing binding assays, the fibril reaction mixture prepared above was centrifuged at 18,000×g for 10 minutes.
# Once the ThT-α-synuclein saturation binding curve and dissociation constant (Kd) were determined the competitive assay for determining the binding affinity of various test compounds was conducted. […] The mixture was incubated at room temperature for 60 minutes on the shaking plate. The fluorescent intensity for each cell was measured by the fluorescence reader at λex and λem. The Ki value for each compound was calculated by the corresponding inhibition curve.
# The Ki values were derived from the EC50 values using the Cheng-Prusoff equation: Ki=EC50/(1+[radioligand]/Kd). See FIGS. 17.1-31.2 for the inhibition curves for each compound in the ThioT competitive binding assay.
# [1] = Biodistribution in male Balb/C mice; format: in vivo; details: for brain uptake and washout (assessment in words): 5 to 60 min post injection; for Biodistribution: Blood / Biodistribution: Brain / Biodistribution: Fat / Biodistribution: Heart / Biodistribution: Kidney / Biodistribution: Liver / Biodistribution: Lung / Biodistribution: Muscle / Biodistribution: Pancreas / Biodistribution: Spleen: tail vein, mean ± SD, n = 4
# Procedure: For the biodistribution studies, 100˜130 μCi of [^11C] TZ-20-35 in ˜100 μL of 10% ethanol/saline solution (v/v) was injected via the tail vein into mature male Balb/C mice (19-24 g) under anesthesia (2.5% isoflurane in oxygen at a flow rate of 1 mL/min). A group of at least four […] were used for each time point. […] The whole brain was quickly harvested. At the same time, samples of blood, heart, lung, liver, spleen, pancreas, kidney, muscle, fat, and tail were dissected. All the tissue samples were collected in tared tubes and counted in an automated gamma counter (Beckman Gamma 8000 well counter) with standards, prepared by diluting the injectate. The counted tissues were then weighed, and the % ID/g was calculated (Table 4).
# [2] = average, read-out: Ki (nM) α-syn (avg)
# [3] = individual determinations, read-out: Ki (nM) α-syn
# [4] = average, read-out: EC50 (nM) EC50 (avg)
# [5] = individual determinations, read-out: EC50 (nM) EC50
smiles,measurement,setting,value
COc1ccc2nc(/C=C/c3ccncc3Br)ccc2c1 [TZ-36-46],Ki,α-synuclein fibrils; [2],168 nM
same,Ki,α-synuclein fibrils; [3],140 nM and 195 nM
same,EC50,α-synuclein fibrils; [4],437 nM
same,EC50,α-synuclein fibrils; [5],365 nM and 509 nM
COc1ccc2nc(/C=C/c3ccncc3Cl)ccc2c1 [TZ-36-48],Ki,α-synuclein fibrils; [2],414 nM
same,Ki,α-synuclein fibrils; [3],414 nM
same,EC50,α-synuclein fibrils; [4],1080 nM
same,EC50,α-synuclein fibrils; [5],1080 nM
COc1ccc2nc(/C=C/c3cccs3)ccc2c1 [TZ-36-50],Ki,α-synuclein fibrils; [2],403 nM
same,Ki,α-synuclein fibrils; [3],403 nM
same,EC50,α-synuclein fibrils; [4],1050 nM
same,EC50,α-synuclein fibrils; [5],1050 nM
COc1ccc2nc(/C=C/c3ccco3)ccc2c1 [TZ-36-52],Ki,α-synuclein fibrils; [2],316 nM
same,Ki,α-synuclein fibrils; [3],316 nM
same,EC50,α-synuclein fibrils; [4],827 nM
same,EC50,α-synuclein fibrils; [5],827 nM
COc1ccc(/C=C/c2ccc(-c3nccs3)s2)cc1 [TZ-37-96],Ki,α-synuclein fibrils; [2],98.5 nM
same,Ki,α-synuclein fibrils; [3],102 nM and 95 nM
COC(=O)c1ccc(/C=C/c2ccncc2)cc1 [[^11C]TZ-20-35],brain uptake and washout (assessment in words),[1],Brain uptake and the washout kinetics were very good
same,Biodistribution: Blood,[1]; 5 min post injection,5.21 ± 0.20 % ID/g
same,Biodistribution: Brain,[1]; 5 min post injection,5.71 % ID/g and 5.71 ± 0.44 % ID/g
same,Biodistribution: Fat,[1]; 5 min post injection,0.90 ± 0.42 % ID/g
same,Biodistribution: Heart,[1]; 5 min post injection,4.72 ± 0.34 % ID/g
same,Biodistribution: Kidney,[1]; 5 min post injection,4.73 ± 0.41 % ID/g
same,Biodistribution: Liver,[1]; 5 min post injection,4.25 ± 0.36 % ID/g
same,Biodistribution: Lung,[1]; 5 min post injection,4.78 ± 0.21 % ID/g
same,Biodistribution: Muscle,[1]; 5 min post injection,4.06 ± 0.13 % ID/g
same,Biodistribution: Pancreas,[1]; 5 min post injection,3.64 ± 0.44 % ID/g
same,Biodistribution: Spleen,[1]; 5 min post injection,4.60 ± 0.16 % ID/g
same,organ recovery,[1]; 30 min post injection,52%
same,Biodistribution: Blood,[1]; 30 min post injection,2.79 ± 0.43 % ID/g
same,Biodistribution: Brain,[1]; 30 min post injection,2.43 % ID/g and 2.43 ± 0.41 % ID/g
same,Biodistribution: Fat,[1]; 30 min post injection,0.86 ± 0.07 % ID/g
same,Biodistribution: Heart,[1]; 30 min post injection,2.61 ± 0.54 % ID/g
same,Biodistribution: Kidney,[1]; 30 min post injection,4.43 ± 0.42 % ID/g
same,Biodistribution: Liver,[1]; 30 min post injection,8.72 ± 0.37 % ID/g
same,Biodistribution: Lung,[1]; 30 min post injection,2.94 ± 0.38 % ID/g
same,Biodistribution: Muscle,[1]; 30 min post injection,2.25 ± 0.33 % ID/g
same,Biodistribution: Pancreas,[1]; 30 min post injection,3.54 ± 0.90 % ID/g
same,Biodistribution: Spleen,[1]; 30 min post injection,3.44 ± 0.23 % ID/g
same,organ recovery,[1]; 60 min post injection,34%
same,Biodistribution: Blood,[1]; 60 min post injection,1.75 ± 0.25 % ID/g
same,Biodistribution: Brain,[1]; 60 min post injection,1.68 % ID/g and 1.68 ± 0.26 % ID/g
same,Biodistribution: Fat,[1]; 60 min post injection,0.58 ± 0.09 % ID/g
same,Biodistribution: Heart,[1]; 60 min post injection,1.80 ± 0.18 % ID/g
same,Biodistribution: Kidney,[1]; 60 min post injection,4.23 ± 0.47 % ID/g
same,Biodistribution: Liver,[1]; 60 min post injection,10.17 ± 1.08 % ID/g
same,Biodistribution: Lung,[1]; 60 min post injection,2.21 ± 0.44 % ID/g
same,Biodistribution: Muscle,[1]; 60 min post injection,1.18 ± 0.10 % ID/g
same,Biodistribution: Pancreas,[1]; 60 min post injection,5.42 ± 1.25 % ID/g
same,Biodistribution: Spleen,[1]; 60 min post injection,3.30 ± 0.36 % ID/g
COc1ccc(NC(=O)c2ccc(/C=C/c3ccncc3)cc2)cc1 [[^11C]TZ-20-83],brain uptake and washout (assessment in words),[1],brain uptake and washout aren't significant
same,Biodistribution: Blood,[1]; 5 min post injection,1.93 ± 0.15 % ID/g
same,Biodistribution: Brain,[1]; 5 min post injection,1.93 % ID/g and 1.93 ± 0.29 % ID/g
same,Biodistribution: Fat,[1]; 5 min post injection,1.94 ± 0.20 % ID/g
same,Biodistribution: Heart,[1]; 5 min post injection,2.31 ± 0.37 % ID/g
same,Biodistribution: Kidney,[1]; 5 min post injection,17.55 ± 2.61 % ID/g
same,Biodistribution: Liver,[1]; 5 min post injection,37.98 ± 3.78 % ID/g
same,Biodistribution: Lung,[1]; 5 min post injection,11.22 ± 0.59 % ID/g
same,Biodistribution: Muscle,[1]; 5 min post injection,1.18 ± 0.24 % ID/g
same,Biodistribution: Pancreas,[1]; 5 min post injection,3.09 ± 0.39 % ID/g
same,Biodistribution: Spleen,[1]; 5 min post injection,18.77 ± 3.38 % ID/g
same,organ recovery,[1]; 30 min post injection,58%
same,Biodistribution: Blood,[1]; 30 min post injection,1.59 ± 0.42 % ID/g
same,Biodistribution: Brain,[1]; 30 min post injection,1.63 % ID/g and 1.63 ± 0.33 % ID/g
same,Biodistribution: Fat,[1]; 30 min post injection,1.73 ± 0.36 % ID/g
same,Biodistribution: Heart,[1]; 30 min post injection,1.79 ± 0.35 % ID/g
same,Biodistribution: Kidney,[1]; 30 min post injection,9.98 ± 1.76 % ID/g
same,Biodistribution: Liver,[1]; 30 min post injection,17.94 ± 3.86 % ID/g
same,Biodistribution: Lung,[1]; 30 min post injection,4.10 ± 0.96 % ID/g
same,Biodistribution: Muscle,[1]; 30 min post injection,1.17 ± 0.23 % ID/g
same,Biodistribution: Pancreas,[1]; 30 min post injection,5.10 ± 1.09 % ID/g
same,Biodistribution: Spleen,[1]; 30 min post injection,3.49 ± 0.84 % ID/g
same,organ recovery,[1]; 60 min post injection,38%
same,Biodistribution: Blood,[1]; 60 min post injection,1.56 ± 0.12 % ID/g
same,Biodistribution: Brain,[1]; 60 min post injection,1.25 % ID/g and 1.25 ± 0.11 % ID/g
same,Biodistribution: Fat,[1]; 60 min post injection,1.05 ± 0.22 % ID/g
same,Biodistribution: Heart,[1]; 60 min post injection,1.48 ± 0.05 % ID/g
same,Biodistribution: Kidney,[1]; 60 min post injection,5.82 ± 0.47 % ID/g
same,Biodistribution: Liver,[1]; 60 min post injection,13.36 ± 1.75 % ID/g
same,Biodistribution: Lung,[1]; 60 min post injection,2.93 ± 0.22 % ID/g
same,Biodistribution: Muscle,[1]; 60 min post injection,0.92 ± 0.14 % ID/g
same,Biodistribution: Pancreas,[1]; 60 min post injection,6.96 ± 0.51 % ID/g
same,Biodistribution: Spleen,[1]; 60 min post injection,3.21 ± 0.76 % ID/g
